From patent US20260062387A1, “SALT-INDUCIBLE KINASE INHIBITOR COMPOUND AND PHARMACEUTICAL COMPOSITION INCLUDING THE SAME” (MITSUBISHI TANABE PHARMA CORPORATION, priority 2023, published 2026) come the findings set out here.

Holding throughout (assay type): biochemical
One experiment has as its target GST-tagged SIK1 (Homo sapiens (Human), UniProt P57059). The experiment is described as follows: SIK1 inhibition test (ADP-Glo Max Assay). To be noted: enzyme 20 nM, AMARA Peptide 200 μM, ATP 1 mM, 2 hours room temperature. A digest of the protocol:
(§1)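 ADP formed was detected by luciferase luminescence after a 2 h room-temperature reaction with 1 mM ATP, 5 mM MgCl2 and AMARA peptide at 200 μM (SIK1, SIK2) or 100 μM (SIK3). Final GST-enzyme levels were 20 nM SIK1, 3 nM SIK2 and 100 nM SIK3. IC50 came from 16-point concentration-response data.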
For orientation: In ADP-Glo the light output rises with the ADP produced.

Another experiment deals with GST-tagged SIK2 (Homo sapiens (Human), UniProt Q9H0K1). The experiment can be described thus: SIK2 inhibition test (ADP-Glo Max Assay). The settings on record: enzyme 3 nM, AMARA Peptide 200 μM, ATP 1 mM, 2 hours room temperature. A digest of the protocol:
as §1

The target in a further experiment is GST-tagged SIK3 (Homo sapiens (Human), UniProt Q9Y2K2). The experiment is described as follows: SIK3 inhibition test (ADP-Glo Max Assay). To be noted: enzyme 100 nM, AMARA Peptide 100 μM, ATP 1 mM, 2 hours room temperature. A digest of the protocol:
as §1

Chain of GST-tagged SIK3 (Q9Y2K2 whole entry): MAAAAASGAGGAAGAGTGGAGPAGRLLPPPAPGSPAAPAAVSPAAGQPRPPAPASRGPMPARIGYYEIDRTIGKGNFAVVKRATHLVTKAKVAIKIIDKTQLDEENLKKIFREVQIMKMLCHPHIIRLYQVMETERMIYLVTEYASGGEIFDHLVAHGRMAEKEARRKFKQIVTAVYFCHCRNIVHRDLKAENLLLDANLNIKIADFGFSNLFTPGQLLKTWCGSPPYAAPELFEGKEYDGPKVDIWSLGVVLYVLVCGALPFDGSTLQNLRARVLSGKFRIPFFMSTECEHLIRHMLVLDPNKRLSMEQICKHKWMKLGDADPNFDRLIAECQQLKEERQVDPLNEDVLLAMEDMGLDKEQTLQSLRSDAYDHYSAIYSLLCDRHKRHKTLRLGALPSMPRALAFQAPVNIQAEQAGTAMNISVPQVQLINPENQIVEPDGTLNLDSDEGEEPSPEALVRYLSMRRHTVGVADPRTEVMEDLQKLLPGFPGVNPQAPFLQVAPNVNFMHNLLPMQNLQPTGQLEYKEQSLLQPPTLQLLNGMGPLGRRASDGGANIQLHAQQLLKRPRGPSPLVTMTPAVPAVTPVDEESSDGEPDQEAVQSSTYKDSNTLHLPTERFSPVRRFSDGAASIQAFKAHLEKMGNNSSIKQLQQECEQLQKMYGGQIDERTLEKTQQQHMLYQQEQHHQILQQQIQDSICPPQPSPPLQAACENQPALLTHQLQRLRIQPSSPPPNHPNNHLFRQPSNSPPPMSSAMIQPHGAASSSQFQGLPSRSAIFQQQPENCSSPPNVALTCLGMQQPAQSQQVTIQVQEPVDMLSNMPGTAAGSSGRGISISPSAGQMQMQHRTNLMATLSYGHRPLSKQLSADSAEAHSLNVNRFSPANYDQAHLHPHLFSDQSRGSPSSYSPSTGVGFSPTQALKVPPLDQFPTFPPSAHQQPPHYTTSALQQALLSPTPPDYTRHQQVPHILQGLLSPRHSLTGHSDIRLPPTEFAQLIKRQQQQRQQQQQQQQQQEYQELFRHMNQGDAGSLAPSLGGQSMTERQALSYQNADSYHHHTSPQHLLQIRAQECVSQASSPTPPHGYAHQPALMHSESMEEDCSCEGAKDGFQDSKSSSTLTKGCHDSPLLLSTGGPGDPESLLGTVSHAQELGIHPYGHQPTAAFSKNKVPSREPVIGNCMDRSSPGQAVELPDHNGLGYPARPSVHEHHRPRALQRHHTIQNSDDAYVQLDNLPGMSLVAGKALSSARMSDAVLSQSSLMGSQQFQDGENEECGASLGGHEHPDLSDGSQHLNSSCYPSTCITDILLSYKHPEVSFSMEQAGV
Chain of GST-tagged SIK1 (P57059 whole entry): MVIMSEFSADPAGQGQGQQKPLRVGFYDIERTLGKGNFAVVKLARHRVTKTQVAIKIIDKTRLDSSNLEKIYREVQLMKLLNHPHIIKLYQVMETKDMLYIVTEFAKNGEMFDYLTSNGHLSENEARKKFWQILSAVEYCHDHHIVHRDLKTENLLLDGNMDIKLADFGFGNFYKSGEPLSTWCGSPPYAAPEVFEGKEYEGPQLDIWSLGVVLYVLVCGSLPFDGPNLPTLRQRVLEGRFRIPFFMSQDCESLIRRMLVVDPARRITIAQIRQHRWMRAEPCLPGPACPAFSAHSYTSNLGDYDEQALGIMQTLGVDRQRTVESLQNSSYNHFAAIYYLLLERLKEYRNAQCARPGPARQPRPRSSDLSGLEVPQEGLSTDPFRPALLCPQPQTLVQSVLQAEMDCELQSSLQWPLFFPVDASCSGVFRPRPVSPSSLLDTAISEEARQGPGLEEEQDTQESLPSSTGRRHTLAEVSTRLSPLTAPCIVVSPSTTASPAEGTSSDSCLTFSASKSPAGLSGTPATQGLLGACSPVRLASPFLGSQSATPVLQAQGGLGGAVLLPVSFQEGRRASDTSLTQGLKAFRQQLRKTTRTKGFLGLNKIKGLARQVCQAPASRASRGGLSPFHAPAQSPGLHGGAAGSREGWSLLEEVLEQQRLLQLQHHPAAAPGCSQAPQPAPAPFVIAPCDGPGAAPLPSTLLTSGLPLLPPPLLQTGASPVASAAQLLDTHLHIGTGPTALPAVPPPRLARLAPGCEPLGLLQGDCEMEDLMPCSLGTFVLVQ
Chain of GST-tagged SIK2 (Q9H0K1 whole entry): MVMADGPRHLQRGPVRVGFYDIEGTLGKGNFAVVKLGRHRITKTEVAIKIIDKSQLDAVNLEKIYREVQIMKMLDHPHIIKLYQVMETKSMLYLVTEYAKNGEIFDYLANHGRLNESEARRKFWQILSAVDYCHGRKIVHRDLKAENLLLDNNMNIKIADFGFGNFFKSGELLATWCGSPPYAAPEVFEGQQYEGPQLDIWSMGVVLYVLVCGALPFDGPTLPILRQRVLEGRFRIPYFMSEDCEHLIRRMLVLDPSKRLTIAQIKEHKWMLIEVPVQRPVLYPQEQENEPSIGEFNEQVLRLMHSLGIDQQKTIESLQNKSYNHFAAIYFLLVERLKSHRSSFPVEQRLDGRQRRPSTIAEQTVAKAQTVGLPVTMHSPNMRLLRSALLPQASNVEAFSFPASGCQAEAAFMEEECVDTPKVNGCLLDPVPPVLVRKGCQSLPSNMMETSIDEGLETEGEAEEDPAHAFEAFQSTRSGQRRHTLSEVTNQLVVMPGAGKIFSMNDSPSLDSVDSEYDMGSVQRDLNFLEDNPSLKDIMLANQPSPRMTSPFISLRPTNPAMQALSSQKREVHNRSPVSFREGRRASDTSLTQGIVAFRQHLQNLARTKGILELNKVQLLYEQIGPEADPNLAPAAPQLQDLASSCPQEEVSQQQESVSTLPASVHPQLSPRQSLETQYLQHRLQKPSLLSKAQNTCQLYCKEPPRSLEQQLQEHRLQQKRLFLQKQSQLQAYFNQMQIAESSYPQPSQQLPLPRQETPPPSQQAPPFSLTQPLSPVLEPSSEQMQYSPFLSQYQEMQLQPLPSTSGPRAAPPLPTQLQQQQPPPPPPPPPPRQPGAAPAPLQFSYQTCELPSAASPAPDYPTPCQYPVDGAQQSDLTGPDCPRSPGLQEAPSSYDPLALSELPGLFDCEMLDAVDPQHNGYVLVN

The IC50 is the concentration at which inhibition is half-maximal. Lower therefore signals inhibition by little substance. Regarding `COc1cc(-c2c3c(C(F)F)cc(-c4cnn(CC[C@@H](C)O)c4)cc3nn2C)cc(OC(F)F)c1C(=O)N[C@@H]1CC1(F)F` [Example 120, N-[(1R)-2,2-difluorocyclopropyl]-2-(difluoromethoxy)-4-[4-(difluoromethyl)-6-[1-[(3R)-3-hydroxybutyl]pyrazol-4-yl]-2-methylindazol-3-yl]-6-methoxybenzamide], the IC50 against GST-tagged SIK1 was determined as 7.8 nM; at GST-tagged SIK2 it was 3.5 nM; against GST-tagged SIK3, 0.7 nM.

For the compound `COc1cc(-c2c3c(C(F)F)cc(-c4cnn(C[C@H]5C[C@@H](O)C5)c4)cc3nn2C)cc(OC(F)F)c1C(=O)N[C@@H]1CC1(F)F` [Example 121, N-[(1R)-2,2-difluorocyclopropyl]-2-(difluoromethoxy)-4-[4-(difluoromethyl)-6-[1-[(cis-3-hydroxycyclobutyl)methyl]pyrazol-4-yl]-2-methylindazol-3-yl]-6-methoxybenzamide], the IC50 was determined as 9.5 nM against GST-tagged SIK1, 4.8 nM against GST-tagged SIK2 and 1.1 nM against GST-tagged SIK3.

Regarding `COc1cc(-c2c3c(C#N)cc(-c4cnn(CCC5(O)CCC5)c4)cc3nn2C)cc(OC(F)F)c1C(=O)NCC1(F)CC1` [Example 122, 4-[4-cyano-6-[1-[2-(1-hydroxycyclobutyl)ethyl]pyrazol-4-yl]-2-methylindazol-3-yl]-2-(difluoromethoxy)-N-[(1-fluorocyclopropyl)methyl]-6-methoxybenzamide], the results for the IC50 on GST-tagged SIK1, on GST-tagged SIK2 and at GST-tagged SIK3 were 15.8 nM, 7.9 nM and 4.4 nM, respectively.

For the compound `COc1cc(-c2c3c(C#N)cc(-c4cnn(CCC5(O)CCC5)c4)cc3nn2C)cc(OC(F)F)c1C(=O)N[C@@H]1CC1(F)F` [Example 123, 4-[4-cyano-6-[1-[2-(1-hydroxycyclobutyl)ethyl]pyrazol-4-yl]-2-methylindazol-3-yl]-N-[(1R)-2,2-difluorocyclopropyl]-2-(difluoromethoxy)-6-methoxybenzamide], the IC50 against GST-tagged SIK1 worked out at 4.4 nM; against GST-tagged SIK2, 1.7 nM; against GST-tagged SIK3 it was 0.6 nM.

With `COc1cc(-c2c3c(C#N)cc(-c4cnn(C[C@H](O)C(F)(F)F)c4)cc3nn2C)cc(OC(F)F)c1C(=O)N[C@@H]1CC1(F)F` [Example 124, 4-[4-cyano-2-methyl-6-[1-[(2S)-3,3,3-trifluoro-2-hydroxypropyl]pyrazol-4-yl]indazol-3-yl]-N-[(1R)-2,2-difluorocyclopropyl]-2-(difluoromethoxy)-6-methoxybenzamide], the concentration for half-maximal inhibition (IC50) was 8 nM on GST-tagged SIK1, 1.1 nM at GST-tagged SIK2 and 1.6 nM at GST-tagged SIK3.

For the compound `COc1cc(-c2c3c(C#N)cc(-c4cnn(C[C@H](C)O)c4)cc3nn2C)cc(OC(F)F)c1C(N)=O` [Example 125, 4-[4-cyano-6-[1-[(2S)-2-hydroxypropyl]pyrazol-4-yl]-2-methylindazol-3-yl]-2-(difluoromethoxy)-6-methoxybenzamide], the IC50 against GST-tagged SIK1 is 11.5 nM; against GST-tagged SIK2 it was 1.8 nM; at GST-tagged SIK3, 2.9 nM.

For the compound `COc1cc(-c2c3c(C#N)cc(-c4cnn(C)c4)cc3nn2C)cc2c1C(=O)NCC2(C)C` [Example 129, 3-(8-methoxy-4,4-dimethyl-1-oxo-2,3-dihydroisoquinolin-6-yl)-2-methyl-6-(1-methylpyrazol-4-yl)indazol-4-carbonitrile], the IC50 was determined as 5.1 nM on GST-tagged SIK1, 0.9 nM against GST-tagged SIK2 and 6.6 nM at GST-tagged SIK3.

In the case of `COc1cc(-c2c3c(OC)cc(-c4cnn(C)c4)cc3nn2C)cc(OC(F)F)c1C(N)=O` [Example 130, 2-(difluoromethoxy)-6-methoxy-4-[4-methoxy-2-methyl-6-(1-methylpyrazol-4-yl)indazol-3-yl]benzamide], the results for the half-maximal inhibitory concentration (IC50) against GST-tagged SIK1, against GST-tagged SIK2 and against GST-tagged SIK3 were 16.9 nM, 2.1 nM and 16.8 nM, respectively.

As to `COc1cc(-c2c3c(OC(F)F)cc(-c4cnn(C)c4)cc3nn2C)cc(OC(F)F)c1C(N)=O` [Example 131, 2-(difluoromethoxy)-4-[4-(difluoromethoxy)-2-methyl-6-(1-methylpyrazol-4-yl)indazol-3-yl]-6-methoxybenzamide], the values for the IC50 on GST-tagged SIK1, against GST-tagged SIK2 and against GST-tagged SIK3 were 12.2 nM, 4.5 nM and 16.3 nM, respectively.
